Test results reported in PubChem BioAssay AID686975 (The Scripps Research Institute Molecular Screening Center, 2013).
Values belong to the molecule of their own block, whether it stands above or below them. Activity calls are given as the source filed them. How the calls were made is not given here.

Experiments:
HSP70 = assay: heat shock protein up-regulation by compounds – cell-based, Western blot, chemiluminescence, late-stage follow-up (AID 686975); settings: cells, western blot Hsp70/Hsp90 up-regulation, active compounds read high
[1] = target: Heat shock protein HSP 90-alpha (Homo sapiens) (UniProt P07900); assay: as above; settings: cells, western blot Hsp70/Hsp90 up-regulation, active compounds read high

- up-regulation ([1]; HSP90, high dose (five times the IC50) 24 µM, low dose (half the IC50) 2.4 µM): < 10%
Compound: O=C(NCc1ccco1)c1coc(=O)c(Br)c1
- up-regulation (HSP70; high dose (five times the IC50) 24 µM, low dose (half the IC50) 2.4 µM): < 10%

- up-regulation ([1]; HSP90, high dose (five times the IC50) 17.5 µM, low dose (half the IC50) 1.8 µM): < 10%
Compound: O=C(NCc1cccnc1)c1coc(=O)c(Br)c1
- up-regulation (HSP70; high dose (five times the IC50) 17.5 µM, low dose (half the IC50) 1.8 µM): < 10%

- up-regulation ([1]; HSP90, high dose (five times the IC50) 44.5 µM, low dose (half the IC50) 4.5 µM): < 10%
Compound: Cc1cc(NC(=O)c2coc(=O)c(Br)c2)ccc1C(C)C
- up-regulation (HSP70; high dose (five times the IC50) 44.5 µM, low dose (half the IC50) 4.5 µM): < 10%

- up-regulation ([1]; HSP90, high dose (five times the IC50) 37.5 µM, low dose (half the IC50) 3.8 µM): < 10%
Compound: CC(C)CNC(=O)c1coc(=O)c(Br)c1
- up-regulation (HSP70; high dose (five times the IC50) 37.5 µM, low dose (half the IC50) 3.8 µM): < 10%

- up-regulation ([1]; HSP90, high dose (five times the IC50) 10.5 µM, low dose (half the IC50) 1.1 µM): < 10%
Compound: O=C(NCCc1ccc(F)cc1)c1coc(=O)c(Br)c1
- up-regulation (HSP70; high dose (five times the IC50) 10.5 µM, low dose (half the IC50) 1.1 µM): < 10%

The next lines start with the molecule.

Compound: CC(NC(=O)c1coc(=O)c(Br)c1)C1C2CCC3CC(C2)CC31 (configuration not stated)
- up-regulation (HSP70; high dose (five times the IC50) 9 µM, low dose (half the IC50) 0.9 µM): < 10%
- up-regulation ([1]; HSP90, high dose (five times the IC50) 9 µM, low dose (half the IC50) 0.9 µM): < 10%

Compound: COC(=O)c1ccc2nc(NC(=O)C3CC3)sc2c1
- up-regulation (HSP70; high dose (five times the IC50) 246 µM, low dose (half the IC50) 24.6 µM): < 10%
- up-regulation ([1]; HSP90, high dose (five times the IC50) 246 µM, low dose (half the IC50) 24.6 µM): < 10%

Compound: CCCCOc1cccc(NC(=O)c2coc(=O)c(Br)c2)c1
- up-regulation (HSP70; high dose (five times the IC50) 114 µM, low dose (half the IC50) 11.4 µM): < 10%
- up-regulation ([1]; HSP90, high dose (five times the IC50) 114 µM, low dose (half the IC50) 11.4 µM): < 50% (inactive)

Compound: COc1ccc(NC(=O)c2coc(=O)c(Br)c2)cc1
- up-regulation (HSP70; high dose (five times the IC50) 12 µM, low dose (half the IC50) 1.2 µM): < 10%
- up-regulation ([1]; HSP90, high dose (five times the IC50) 12 µM, low dose (half the IC50) 1.2 µM): < 10%

Compound: COc1ccc(NC(=O)c2ccc(NC(=O)c3coc(=O)c(Br)c3)cc2)cc1
- up-regulation (HSP70; high dose (five times the IC50) 60.5 µM, low dose (half the IC50) 6.1 µM): < 10%
- up-regulation ([1]; HSP90, high dose (five times the IC50) 60.5 µM, low dose (half the IC50) 6.1 µM): < 10%

Compound: O=C(Nc1ccc(F)cc1)c1coc(=O)c(Br)c1
- up-regulation (HSP70; high dose (five times the IC50) 17 µM, low dose (half the IC50) 1.7 µM): < 10%
- up-regulation ([1]; HSP90, high dose (five times the IC50) 17 µM, low dose (half the IC50) 1.7 µM): < 10%

Compound: CC(=O)c1ccc(NC(=O)c2coc(=O)c(Br)c2)cc1
- up-regulation (HSP70; high dose (five times the IC50) 53.5 µM, low dose (half the IC50) 5.4 µM): < 10%
- up-regulation ([1]; HSP90, high dose (five times the IC50) 53.5 µM, low dose (half the IC50) 5.4 µM): < 10%

Compound: O=C(Nc1ccccc1I)c1coc(=O)c(Br)c1
- up-regulation (HSP70; high dose (five times the IC50) 147 µM, low dose (half the IC50) 14.7 µM): < 10%
- up-regulation ([1]; HSP90, high dose (five times the IC50) 147 µM, low dose (half the IC50) 14.7 µM): < 10%

Compound: CCOc1ccc(-c2nc(CN3CCCCC3CCn3cccn3)c(C)o2)cc1 (configuration not stated)
- up-regulation (HSP70; high dose (five times the IC50) 111 µM, low dose (half the IC50) 11.1 µM): < 10%
- up-regulation ([1]; HSP90, high dose (five times the IC50) 111 µM, low dose (half the IC50) 11.1 µM): < 10%

Compound: Cc1cccc(NC(=O)c2coc(=O)c(Br)c2)n1
- up-regulation (HSP70; high dose (five times the IC50) 136.5 µM, low dose (half the IC50) 13.7 µM): < 10%
- up-regulation ([1]; HSP90, high dose (five times the IC50) 136.5 µM, low dose (half the IC50) 13.7 µM): < 50% (inactive)

Compound: CCCCCCCCOc1ccc(NC(=O)c2coc(=O)c(Br)c2)cc1
- up-regulation (HSP70; high dose (five times the IC50) 64.5 µM, low dose (half the IC50) 6.5 µM): < 10%
- up-regulation ([1]; HSP90, high dose (five times the IC50) 64.5 µM, low dose (half the IC50) 6.5 µM): < 50% (inactive)
